Source: patent US10336732B2, “1-heterocyclyl isochromanyl compounds and analogs for treating CNS disorders” (Sunovion Pharmaceuticals Inc., priority 2015, dated 2019)

biological target: T1, κ (KOP) (Rattus norvegicus, UniProt P34975); test: In vitro radioligand binding assay, κ (KOP), [3H]U 69593; details: rat recombinant (CHO cells)
T1 construct: expressed in transfected cells; host or cells: CHO cells
Protocol: Certain compounds were tested by in vitro binding assays using standard procedures. […] These receptors and assays are well known to those skilled in the art, as exemplified by the following: Abramovitz, M. et al. (2000), Biochem. Biophys. Acta., 1483: 285-293 (EP4, IP (PGI2)); Aharony, D. et al. (1993), Mol. Pharmacol., 44: 356-363 (NK2); Ardati, A. et al. (1997), Mol. Pharmacol., 51: 816-824 (NOP (ORL1)); Bignon, E. et al. (1999), J. Pharmacol. Exp. Ther. 289: 742-751 (CCK1 (CCKA)); Bloomquist, B. T. et al. (1998), Biochem. Biophys. Res. Commun., 243: 474-479 (GAL2); Brockhaus, M. et al. (1990), Proc. Natl. Acad. Sci. U.S.A., 87: 3127-3131 (TNF-α); Brown, G. B. (1986), J. Neurosci., 6: 2064-2070 (Na+ channel (site 2)); Buchan, K. W. et al. (1994), Brit. J. Pharmacol., 112: 1251-1257 (ETA); Cesura, A. M. et al. (1990), Mol. Pharmacol., 37: 358-366 (MAO-A); Choi, D. S. et al. (1994), FEBS Lett., 352: 393-399 (5-HT2B); Clark, A. F. et al. (1996), Invest. Ophtalmol. Vis. Sci., 37: 805-813 (GR); Couvineau, A. et al. (1985), Biochem. J., 231: 139-143 (VPAC1 (VIP1)); Dorje, F. et al. (1991), J. Pharmacol. Exp. Ther., 256: 727-733 (M1, M2, M3, M4); Ferry, G. et al. (2001), Eur. J. Pharmacol., 417: 77-89 (PPARγ); Fuchs, S. et al. (2001), Mol. Med., 7: 115-124 (ETB); Fuhlendorff, J. et al. (1990), Proc. Natl. Acad. Sci. U.S.A., 87: 182-186 (Y2); Ganapathy M E. et al. (1999), J. Pharmacol. Exp. Ther., 289: 251-260 (sigma (non-selective)); Gopalakrishnan, M. et al. (1996), J. Pharmacol. Exp. Ther., 276: 289-297 (N neuronal α4β2); Greengrass, P. and Bremner, R. (1979), Eur. J. Pharmacol., 55: 323-326 (α1 (non-selective)); Grandy, D. K. et al. (1989), Proc. Natl. Acad. Sci. U.S.A., 86: 9762-9766 (D25); Guard, S. et al. (1993), Eur. J. Pharmacol., 240:177-184 (BB (non-selective)); Heuillet, E. et al. (1993), J. Neurochem., 60: 868-876 (NK1, P2X); Hope, A. G. et al. (1996), Brit. […]

T1 sequence (P34975 whole entry): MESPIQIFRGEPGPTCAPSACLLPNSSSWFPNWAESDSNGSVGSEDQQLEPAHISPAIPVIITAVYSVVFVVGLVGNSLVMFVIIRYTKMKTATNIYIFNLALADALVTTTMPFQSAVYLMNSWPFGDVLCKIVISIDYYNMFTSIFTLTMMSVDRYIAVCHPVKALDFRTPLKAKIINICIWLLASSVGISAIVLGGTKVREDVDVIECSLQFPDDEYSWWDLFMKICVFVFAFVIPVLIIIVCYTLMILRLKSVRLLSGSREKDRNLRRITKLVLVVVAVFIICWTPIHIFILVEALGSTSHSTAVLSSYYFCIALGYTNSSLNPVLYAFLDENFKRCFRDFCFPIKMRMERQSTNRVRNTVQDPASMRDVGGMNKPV

Compared with `Fc1ccc2c(c1)[C@H]([C@@H]1CCCN1)OCC2` [Compound I-5, (2S)-2-((R)-7-fluoroisochroman-1-yl)pyrrolidine], `Clc1ccc2c(c1)[C@H]([C@@H]1CCCN1)OCC2` [Compound I-29, (S)-2-((R)-7-chloroisochroman-1-yl)pyrrolidine] is higher in “κ (KOP) percent inhibition of specific binding” value: 71% for the first, 89% for the second.

For `Fc1cccc2c1CCO[C@@H]2[C@@H]1CCN1` [Compound I-94, (S)-2-((S)-5-fluoroisochroman-1-yl)azetidine], the “κ (KOP) percent inhibition of specific binding” value was 67%.
